Measurements taken from article PMC5218480 (PLoS ONE, 2017).

Test system: MV-4-11 cells
Test: Gene expression microarray analysis (Affymetrix PrimeView) and GSEA
Format: cell-based, human
Design: RFU PODN (11730768_x_at) / Fold change /veh PODN (11730768_x_at) / RFU LINC00158 (11744669_a_at) / Fold change /veh LINC00158 (11744669_a_at) / RFU DUSP10 (11751237_a_at) / Fold change /veh DUSP10 (11751237_a_at) / RFU ID3 (11757404_x_at) / Fold change /veh ID3 (11757404_x_at) / RFU PLEKHG5 (11737974_s_at) / Fold change /veh PLEKHG5 (11737974_s_at) / RFU LRRC4B (11730491_at) / Fold change /veh LRRC4B (11730491_at) / RFU GIMAP4 (11747438_a_at) / Fold change /veh GIMAP4 (11747438_a_at) / RFU KRT8 (11758183_x_at) / Fold change /veh KRT8 (11758183_x_at) / RFU CNN1 (11734310_a_at) / Fold change /veh CNN1 (11734310_a_at) / RFU VPS37D (11726825_at) / Fold change /veh VPS37D (11726825_at) / RFU C10orf10 (11716522_x_at) / Fold change /veh C10orf10 (11716522_x_at) / RFU KIR2DL2 /// KIR2DL4 /// KIR2DL5A /// KIR2DL5B /// KIR2DS1 /// KIR2DS2 /// KIR2DS3 /// KIR2DS4 /// KIR3DL3 /// KIR3DL3 /// KIR3DS1 (11738374_at) / Fold change /veh KIR2DL2 /// KIR2DL4 /// KIR2DL5A /// KIR2DL5B /// KIR2DS1 /// KIR2DS2 /// KIR2DS3 /// KIR2DS4 /// KIR3DL3 /// KIR3DL3 /// KIR3DS1 (11738374_at) / RFU C1QL1 (11718748_at) / Fold change /veh C1QL1 (11718748_at) / RFU TMPRSS4 (11747572_a_at) / Fold change /veh TMPRSS4 (11747572_a_at) / RFU HAMP (11756126_x_at) / Fold change /veh HAMP (11756126_x_at) / RFU RNFT2 (11725882_a_at) / Fold change /veh RNFT2 (11725882_a_at) / RFU NR4A2 (11747474_a_at) / Fold change /veh NR4A2 (11747474_a_at) / RFU ABCC12 (11746883_a_at) / Fold change /veh ABCC12 (11746883_a_at) / RFU TMEM136 (11760407_x_at) / Fold change /veh TMEM136 (11760407_x_at) / RFU CLDN22 /// WWC2 (11732394_at) / Fold change /veh CLDN22 /// WWC2 (11732394_at) / RFU HLA-DPB1 (11760878_x_at) / Fold change /veh HLA-DPB1 (11760878_x_at) / RFU SPINT1 (11716480_a_at) / Fold change /veh SPINT1 (11716480_a_at) / RFU GAP43 (11754022_s_at) / Fold change /veh GAP43 (11754022_s_at) / RFU A4GNT (11735810_at) / Fold change /veh A4GNT (11735810_at) / RFU PRB3 (11715151_x_at) / Fold change /veh PRB3 (11715151_x_at) / RFU TUBB4B (11761932_at) / Fold change /veh TUBB4B (11761932_at) / RFU CAPN14 (11732068_a_at) / Fold change /veh CAPN14 (11732068_a_at) / RFU TMCC2 (11721928_a_at) / Fold change /veh TMCC2 (11721928_a_at) / RFU IRGQ (11745062_a_at) / Fold change /veh IRGQ (11745062_a_at) / RFU FAM174B (11720279_a_at) / Fold change /veh FAM174B (11720279_a_at) / RFU TMPRSS4 (11748680_a_at) / Fold change /veh TMPRSS4 (11748680_a_at) / RFU FAM212B (11763350_a_at) / Fold change /veh FAM212B (11763350_a_at) / RFU PLEKHG5 (11743358_a_at) / Fold change /veh PLEKHG5 (11743358_a_at) / RFU ZSCAN30 (11745921_a_at) / Fold change /veh ZSCAN30 (11745921_a_at) / RFU CMKLR1 (11741424_a_at) / Fold change /veh CMKLR1 (11741424_a_at) / RFU LOC101060620 /// MAPK8IP1 (11723275_at) / Fold change /veh LOC101060620 /// MAPK8IP1 (11723275_at) / RFU SPTSSB (11747773_x_at) / Fold change /veh SPTSSB (11747773_x_at) / RFU PRSS12 (11739890_at) / Fold change /veh PRSS12 (11739890_at) / RFU BIN1 (11741810_x_at) / Fold change /veh BIN1 (11741810_x_at) / RFU WNT11 (11732464_a_at) / Fold change /veh WNT11 (11732464_a_at) / RFU C10orf10 (11716521_a_at) / Fold change /veh C10orf10 (11716521_a_at) / RFU C5orf56 (11738089_at) / Fold change /veh C5orf56 (11738089_at) / RFU CYB561 (11721691_x_at) / Fold change /veh CYB561 (11721691_x_at) / RFU ANKRD19P (11752326_a_at) / Fold change /veh ANKRD19P (11752326_a_at) / RFU OR2T12 /// OR2T33 /// OR2T8 (11738714_s_at) / Fold change /veh OR2T12 /// OR2T33 /// OR2T8 (11738714_s_at) / RFU VCAN (11748164_a_at) / Fold change /veh VCAN (11748164_a_at) / RFU JSRP1 (11732532_at) / Fold change /veh JSRP1 (11732532_at) / RFU KRTAP10-11 (11738290_x_at) / Fold change /veh KRTAP10-11 (11738290_x_at) / RFU MYO3A (11730013_a_at) / Fold change /veh MYO3A (11730013_a_at) / RFU EBF3 (11725865_a_at) / Fold change /veh EBF3 (11725865_a_at) / RFU CAMK2N1 (11719241_x_at) / Fold change /veh CAMK2N1 (11719241_x_at) / RFU C5orf56 (11738088_a_at) / Fold change /veh C5orf56 (11738088_a_at) / RFU OLFML3 (11715873_a_at) / Fold change /veh OLFML3 (11715873_a_at) / RFU LOC100653217 /// NTM (11731650_a_at) / Fold change /veh LOC100653217 /// NTM (11731650_a_at) / RFU MAPK11 (11762145_a_at) / Fold change /veh MAPK11 (11762145_a_at) / RFU FIZ1 (11724087_x_at) / Fold change /veh FIZ1 (11724087_x_at) / RFU OASL (11726364_x_at) / Fold change /veh OASL (11726364_x_at) / RFU SOX15 (11748057_x_at) / Fold change /veh SOX15 (11748057_x_at) / RFU CD79A (11719716_a_at) / Fold change /veh CD79A (11719716_a_at) / RFU HIST1H1D (11736915_at) / Fold change /veh HIST1H1D (11736915_at) / RFU CASKIN2 (11723855_a_at) / Fold change /veh CASKIN2 (11723855_a_at) / RFU LOC730098 (11760151_x_at) / Fold change /veh LOC730098 (11760151_x_at) / RFU OR4N2 (11742367_at) / Fold change /veh OR4N2 (11742367_at) / RFU PRRT2 (11749266_a_at) / Fold change /veh PRRT2 (11749266_a_at) / RFU SNX32 (11753110_a_at) / Fold change /veh SNX32 (11753110_a_at) / RFU CDHR5 (11726645_a_at) / Fold change /veh CDHR5 (11726645_a_at) / RFU RCAN1 (11760418_a_at) / Fold change /veh RCAN1 (11760418_a_at) / RFU FAM167A (11723789_a_at) / Fold change /veh FAM167A (11723789_a_at) / RFU FAM26E (11764081_at) / Fold change /veh FAM26E (11764081_at) / RFU ISYNA1 (11749810_s_at) / Fold change /veh ISYNA1 (11749810_s_at) / RFU ACY1 (11761880_at) / Fold change /veh ACY1 (11761880_at) / RFU 11764098_at / Fold change /veh 11764098_at / RFU SAMD14 (11745864_x_at) / Fold change /veh SAMD14 (11745864_x_at) / RFU NPB (11741838_a_at) / Fold change /veh NPB (11741838_a_at) / RFU TMPRSS6 (11731388_a_at) / Fold change /veh TMPRSS6 (11731388_a_at) / RFU KRTAP10-2 (11738614_at) / Fold change /veh KRTAP10-2 (11738614_at) / RFU ARHGAP8 /// PRR5-ARHGAP8 (11727945_x_at) / Fold change /veh ARHGAP8 /// PRR5-ARHGAP8 (11727945_x_at) / RFU KRTAP5-7 /// NADSYN1 (11734609_at) / Fold change /veh KRTAP5-7 /// NADSYN1 (11734609_at) / RFU RASL12 (11751679_a_at) / Fold change /veh RASL12 (11751679_a_at) / RFU CDKN2B (11736163_a_at) / Fold change /veh CDKN2B (11736163_a_at) / RFU PRF1 (11729649_at) / Fold change /veh PRF1 (11729649_at) / RFU, ZNF638 /// ZNF638-IT1 / Fold change vs veh, ZNF638 /// ZNF638-IT1 / RFU, PANK3 / Fold change vs veh, PANK3 / RFU, SH3YL1 / Fold change vs veh, SH3YL1 / RFU, ZEB2 / Fold change vs veh, ZEB2 / RFU, NRIP1 / Fold change vs veh, NRIP1 / RFU, PTTG1IP / Fold change vs veh, PTTG1IP / RFU, CAPN2 / Fold change vs veh, CAPN2 / RFU, MED14 / Fold change vs veh, MED14 / RFU, SNORA58 / Fold change vs veh, SNORA58 / RFU, C1orf63 / Fold change vs veh, C1orf63 / RFU, LRRFIP1 / Fold change vs veh, LRRFIP1 / RFU, NDUFAF7 / Fold change vs veh, NDUFAF7 / RFU, SLC12A2 / Fold change vs veh, SLC12A2 / RFU, IBTK / Fold change vs veh, IBTK / RFU, ESF1 / Fold change vs veh, ESF1 / Fold change vs veh, TMEM50B / RFU, TAOK1 / Fold change vs veh, TAOK1 / RFU, ACBD3 / Fold change vs veh, ACBD3 / RFU, TMA16 / Fold change vs veh, TMA16 / RFU, RWDD3 / Fold change vs veh, RWDD3 / RFU, BCAT1 / Fold change vs veh, BCAT1 / RFU, EDEM3 / Fold change vs veh, EDEM3 / RFU, TMEM33 / Fold change vs veh, TMEM33 / RFU, WDR75 / Fold change vs veh, WDR75 / RFU, AHCTF1 / Fold change vs veh, AHCTF1 / RFU, TFRC / Fold change vs veh, TFRC / RFU, ZDHHC17 / Fold change vs veh, ZDHHC17 / RFU, NOM1 / Fold change vs veh, NOM1 / RFU, ARL8B / Fold change vs veh, ARL8B / RFU, ZBTB11 / Fold change vs veh, ZBTB11 / RFU, TAMM41 / Fold change vs veh, TAMM41 / RFU, KIAA1704 /// LOC100996395 / Fold change vs veh, KIAA1704 /// LOC100996395 / RFU, ING1 / Fold change vs veh, ING1 / RFU, TRMT61B / Fold change vs veh, TRMT61B / RFU, FUBP3 / Fold change vs veh, FUBP3 / RFU, TP53 / Fold change vs veh, TP53 / RFU, TNKS2 / Fold change vs veh, TNKS2 / RFU, ZFP14 / Fold change vs veh, ZFP14 / RFU, ACTR2 / Fold change vs veh, ACTR2 / RFU, PPP3R1 / Fold change vs veh, PPP3R1 / RFU, PIK3R1 / Fold change vs veh, PIK3R1 / RFU, HNRNPA1 / Fold change vs veh, HNRNPA1 / RFU, RNF170 / Fold change vs veh, RNF170 / RFU, ZNF28 / Fold change vs veh, ZNF28 / RFU, RNGTT / Fold change vs veh, RNGTT / RFU, OGT / Fold change vs veh, OGT / RFU, BRD1 / Fold change vs veh, BRD1 / RFU, MARS / Fold change vs veh, MARS / RFU, ZNF655 / Fold change vs veh, ZNF655 / RFU, FAHD1 / Fold change vs veh, FAHD1 / RFU, BDP1 / Fold change vs veh, BDP1 / RFU, LRRCC1 / Fold change vs veh, LRRCC1 / RFU, ARID1A / Fold change vs veh, ARID1A / RFU, ZNF146 / Fold change vs veh, ZNF146 / RFU, ZNF330 / Fold change vs veh, ZNF330 / RFU, GPN3 / Fold change vs veh, GPN3 / RFU, C9orf123 / Fold change vs veh, C9orf123 / RFU, N4BP2L2 / Fold change vs veh, N4BP2L2 / RFU, ARFIP1 / Fold change vs veh, ARFIP1 / RFU, FAM179B / Fold change vs veh, FAM179B / RFU, BCL10 / Fold change vs veh, BCL10 / RFU, UHRF1BP1L / Fold change vs veh, UHRF1BP1L / RFU, BET1 / Fold change vs veh, BET1 / RFU, CNOT2 / Fold change vs veh, CNOT2 / RFU, ZNF268 / Fold change vs veh, ZNF268 / Fold change vs veh, ZNF507 / RFU, DGCR2 / Fold change vs veh, DGCR2 / RFU, WDSUB1 / Fold change vs veh, WDSUB1 / Fold change vs veh, HSP90B1 /// MIR3652 / RFU, ADSS / Fold change vs veh, ADSS / RFU, GK / Fold change vs veh, GK / RFU, ZNF148 / Fold change vs veh, ZNF148 / RFU, TAF9 / Fold change vs veh, TAF9 / RFU, SLC1A5 / Fold change vs veh, SLC1A5 / RFU, SLMO2 / Fold change vs veh, SLMO2 / RFU, ABCC4 / Fold change vs veh, ABCC4 / RFU, LOC101060439 /// RAP1B / Fold change vs veh, LOC101060439 /// RAP1B / RFU, RFX7 / Fold change vs veh, RFX7 / RFU, GTPBP10 / Fold change vs veh, GTPBP10 / RFU, CNEP1R1 / Fold change vs veh, CNEP1R1 / RFU, BIVM-ERCC5 /// ERCC5 / Fold change vs veh, BIVM-ERCC5 /// ERCC5 / RFU, ILF3 / Fold change vs veh, ILF3 / RFU 11762660_at / Fold change /veh 11762660_at / RFU VCAN (11757783_s_at) / Fold change /veh VCAN (11757783_s_at) / RFU DDX43 (11728927_at) / Fold change /veh DDX43 (11728927_at) / RFU KRT8 (11758188_x_at) / Fold change /veh KRT8 (11758188_x_at) / RFU NKD1 (11759106_at) / Fold change /veh NKD1 (11759106_at) / RFU SRD5A1 (11742802_a_at) / Fold change /veh SRD5A1 (11742802_a_at) / RFU TPSAB1 /// TPSB2 (11721975_s_at) / Fold change /veh TPSAB1 /// TPSB2 (11721975_s_at) / RFU GSTM3 (11746129_a_at) / Fold change /veh GSTM3 (11746129_a_at) / RFU IL23R (11737362_x_at) / Fold change /veh IL23R (11737362_x_at) / RFU TMEM51 (11727254_a_at) / Fold change /veh TMEM51 (11727254_a_at) / RFU PIWIL2 (11732686_x_at) / Fold change /veh PIWIL2 (11732686_x_at) / RFU ORM1 (11744905_x_at) / Fold change /veh ORM1 (11744905_x_at) / RFU CCDC152 (11743942_at) / Fold change /veh CCDC152 (11743942_at) / RFU ECM1 (11717891_a_at) / Fold change /veh ECM1 (11717891_a_at) / RFU IL23R (11748794_a_at) / Fold change /veh IL23R (11748794_a_at) / RFU TNFAIP8L3 (11732012_x_at) / Fold change /veh TNFAIP8L3 (11732012_x_at) / RFU MBOAT4 (11741988_at) / Fold change /veh MBOAT4 (11741988_at) / RFU 11764193_at / Fold change /veh 11764193_at / RFU TMEM53 (11763286_at) / Fold change /veh TMEM53 (11763286_at) / RFU MAGEB2 (11727129_at) / Fold change /veh MAGEB2 (11727129_at) / RFU TMEM200A (11744735_a_at) / Fold change /veh TMEM200A (11744735_a_at) / RFU CCDC152 (11751479_a_at) / Fold change /veh CCDC152 (11751479_a_at) / RFU FAM211A (11726209_a_at) / Fold change /veh FAM211A (11726209_a_at) / RFU RGS16 (11746705_a_at) / Fold change /veh RGS16 (11746705_a_at) / RFU VCAN (11755009_s_at) / Fold change /veh VCAN (11755009_s_at) / RFU RHOB (11743442_s_at) / Fold change /veh RHOB (11743442_s_at) / RFU RGS16 (11720943_a_at) / Fold change /veh RGS16 (11720943_a_at) / RFU RGS16 (11720944_at) / Fold change /veh RGS16 (11720944_at) / RFU, VPS4B / Fold change vs veh, VPS4B / RFU, CREB1 / Fold change vs veh, CREB1 / RFU, DNAJC13 / Fold change vs veh, DNAJC13 / RFU, GNAQ / Fold change vs veh, GNAQ / RFU, CDK5R1 / Fold change vs veh, CDK5R1 / RFU, ZRANB3 / Fold change vs veh, ZRANB3 / RFU, CUL4A / Fold change vs veh, CUL4A / RFU, CCNY / Fold change vs veh, CCNY / RFU, UFL1 / Fold change vs veh, UFL1 / RFU, COG3 / Fold change vs veh, COG3 / RFU, DIAPH2 / Fold change vs veh, DIAPH2 / RFU, SKA2 / Fold change vs veh, SKA2 / RFU, AFF3 / Fold change vs veh, AFF3 / RFU, LMF1 / Fold change vs veh, LMF1 / RFU, IPO11 / Fold change vs veh, IPO11 / RFU, DFFB / Fold change vs veh, DFFB / RFU, FOXP1 / Fold change vs veh, FOXP1 / RFU, CARD8 / Fold change vs veh, CARD8 / RFU, STRN3 / Fold change vs veh, STRN3 / RFU, ADK / Fold change vs veh, ADK / RFU, RASSF2 / Fold change vs veh, RASSF2 / RFU, WIPF1 / Fold change vs veh, WIPF1 / RFU, LARP1B / Fold change vs veh, LARP1B / RFU, RASA1 / Fold change vs veh, RASA1 / RFU, RB1 / Fold change vs veh, RB1 / RFU, PPFIA1 / Fold change vs veh, PPFIA1 / RFU, MAT2A / Fold change vs veh, MAT2A / RFU, CCT5 / Fold change vs veh, CCT5 / RFU, WDR92 / Fold change vs veh, WDR92 / RFU, CUX1 / Fold change vs veh, CUX1 / RFU, TTC7A / Fold change vs veh, TTC7A / RFU, TMEM135 / Fold change vs veh, TMEM135 / RFU, DEPTOR / Fold change vs veh, DEPTOR / RFU, CPM / Fold change vs veh, CPM / RFU, DNAJB6 / Fold change vs veh, DNAJB6 / RFU, CACNA2D3 / Fold change vs veh, CACNA2D3 / RFU, DTX4 / Fold change vs veh, DTX4 / RFU, TFCP2 / Fold change vs veh, TFCP2 / RFU, GMCL1 /// GMCL1P1 / Fold change vs veh, GMCL1 /// GMCL1P1 / RFU, AEBP2 / Fold change vs veh, AEBP2 / RFU, SNHG1 /// SNORD22 /// SNORD25 /// SNORD26 /// SNORD27 /// SNORD28 /// SNORD29 /// SNORD31 / Fold change vs veh, SNHG1 /// SNORD22 /// SNORD25 /// SNORD26 /// SNORD27 /// SNORD28 /// SNORD29 /// SNORD31 / Fold change (Aza/veh), C12orf56 (ProbeSet 11735607_a_at) / Fold change (ACY-1035/veh), C12orf56 (ProbeSet 11735607_a_at) / Fold change (Aza/veh), FGFR1OP (ProbeSet 11751329_s_at) / Fold change (ACY-1035/veh), FGFR1OP (ProbeSet 11751329_s_at) / Fold change (Aza/veh), VPS36 (ProbeSet 11739960_a_at) / Fold change (ACY-1035/veh), VPS36 (ProbeSet 11739960_a_at) / RFU SYPL1 (11715823_x_at) / Fold change /veh SYPL1 (11715823_x_at) / RFU IGFBP7 (11715501_s_at) / Fold change /veh IGFBP7 (11715501_s_at) / RFU REEP3 (11722064_at) / Fold change /veh REEP3 (11722064_at) / RFU IGLL1 (11728026_x_at) / Fold change /veh IGLL1 (11728026_x_at): dose or concentration left out as unconfirmed
Conditions: ProbeSet 11740781_a_at; LIST B

Compound: Nc1ccc(-c2cccs2)cc1NC(=O)c1ccc2c(c1)cc(C1CC1)n2CCN1CCOCC1 [ACY-1035]
- Fold change vs veh, ILF3: 0.88
